IC50 and EC50 data for three compounds are collected here from patent publication US20250059208A1, “KRAS MODULATING COMPOUNDS” (priority 2023, published 2025).

Each structure is given as a SMILES string. Bounds are passed on as bounds.

A word on the IC50: it is the midpoint of a concentration-inhibition curve. Higher therefore signals weaker potency. What is called EC50 is the concentration that produces a half-maximal response.

For experiment [1], the target named is GDP-loaded wild-type KRAS (WT) (Homo sapiens, UniProt P01116). Description: KRAS (GDP) biochemical TR-FRET probe displacement assay, WT. Particulars: 2 hours at room temperature. Type of experiment: binding. How it is done: (§1) • Compounds were tested for binding to GDP-loaded wild-type KRAS (WT), KRAS-G12C, KRAS-G12D, and KRAS-G12V in a 384-well assay format using a TR-FRET probe displacement assay in buffer consisting of 50 mM Hepes (pH 7.4), 150 mM NaCl. 5 mM MgCl2 and 0.005% Tween-20. 0.03 nM KRAS was used in this assay with 0.02 nM Eu-streptavidin and 12 nM Cy-5 labelled probe. Compounds were serially diluted (1:3) in DMSO. The LabCyte ECHO Acoustic dispenser was used to pre-spot the assay plates (384-well Non-Binding Surface plates, Corning, Catalog #3824) with 50 nL of compound. 5 μL of 2× enzyme concentration was added to the pre-spotted plates and incubated for 30 minutes before adding 5 μL of 2× concentration of Eu-streptavidin and Cy-5 labelled probe (10 μL final reaction volume). The plates were incubated at room temperature for 2 hours before measuring TR-FRET ratio (665 nm/615 nm) on the Envision multimode plate reader. The ratios were normalized to a positive (saturating concentration of known inhibitor) and negative (DMSO) control and plotted against the log of compound concentration. […]
Sequence of GDP-loaded wild-type KRAS (WT) (P01116 1-188 isoform P01116-2): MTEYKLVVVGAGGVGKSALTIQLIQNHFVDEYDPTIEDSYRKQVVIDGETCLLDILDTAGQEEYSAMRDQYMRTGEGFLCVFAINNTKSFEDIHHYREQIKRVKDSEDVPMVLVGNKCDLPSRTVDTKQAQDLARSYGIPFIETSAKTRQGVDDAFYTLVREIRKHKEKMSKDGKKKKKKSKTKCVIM
On the technique in general: TR-FRET usually uses a lanthanide donor and a delayed reading to cut background.

The next experiment concerns the target GDP-loaded KRAS-G12C (Homo sapiens, UniProt P01116, G12C). Description: KRAS (GDP) biochemical TR-FRET probe displacement assay, G12C. Type of experiment: binding. The note with it: 2 hours at room temperature. As to the method:
as §1

In another experiment the target is GDP-loaded KRAS-G12V (Homo sapiens, UniProt P01116, G12V). Description: KRAS (GDP) biochemical TR-FRET probe displacement assay, G12V. Type of experiment: binding. The note with it: 2 hours at room temperature. As to the method: as §1
Sequence of GDP-loaded KRAS-G12V (P01116 1-188 isoform P01116-2 G12V): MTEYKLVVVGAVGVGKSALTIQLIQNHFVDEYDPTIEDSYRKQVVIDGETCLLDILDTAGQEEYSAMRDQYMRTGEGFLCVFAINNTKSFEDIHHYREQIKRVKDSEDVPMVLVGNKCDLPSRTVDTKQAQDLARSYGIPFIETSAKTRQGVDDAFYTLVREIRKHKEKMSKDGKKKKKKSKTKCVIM
The target of a further experiment is GDP-loaded KRAS-G12D (Homo sapiens, UniProt P01116, G12D). As to the kind of experiment: KRAS (GDP) biochemical TR-FRET probe displacement assay, G12D. Type of experiment: binding. Particulars: 2 hours at room temperature. How it is done:
as §1

Experiment [2] has as its system cellular pERK in Kuramochi (WT KRAS) cell-line. As to the kind of experiment: Cell based pERK assay, Kuramochi. Particulars: 2 h, Kuramochi (WT KRAS) cells, 2 hours compound incubation, HTRF Phospho-ERK1/2. How it is done: (§2) Compounds were tested in a 384-well assay format for their ability to inhibit cellular pERK in Kuramochi (WT KRAS), MIA-PaCa-2 (KRAS-G12C), ASPC-1 (KRAS G12D), and NCI-H441 (KRAS-G12V) cell-lines. Compounds were serially diluted (1:3) in DMSO. On day −1, 80 μL of cells were plated per well in the 384 well tissue-culture plates (Greiner: Cat #781080) to seed 5000 cells per wells of AsPC-1 or 7500 cells of MIA-PaCa-2, NCI-H441, and Kuramochi cell lines in RPMI (Corning: Cat #10-040-CM) with 10% fetal bovine serum (FBS) (HyClone: Cat #SH30071-03) and IX penicillin-streptomycin-glutamate (PSG) (Corning: Cat #30-009-C1) for […] and Kuramochi cell lines and DMEM (Corning: Cat #15-018-CM) with 10% FBS and 1×PSG for MIA-PaCa-2 cell line. The plates were then incubated overnight at 37° C. and 5% CO2. On day 0, 400 nL of compound/well was added into the cell plates and mixed 5 times by pipetting using a Beckmann Biomek FX. The cell plates were then incubated for 2 hours at 37° C. and 5% CO2. HTRF Advanced Phospho-ERK1/2 (THR202/TYR204) Detection Kits (PerkinElmer: Cat #64AERPEG) were used to prepare the lysis and detection solution according to manufacturer protocol. Following the 2 hour incubation, 70 μL of medium was aspirated from the plates and 10 μL of lysis and detection solution was added to the plates using a Biotek EL406 washer and dispenser. Plates were sealed and stored overnight at room temperature. HTRF ratio (665 nm/615 nm) was read by Envision multimode reader (PerkinElmer) the next day. The TR-FRET ratios were normalized to a positive (saturating concentration of known inhibitor) and negative (DMSO) control and plotted against the log of compound concentration.

Experiment [3] deals with cellular pERK in MIA-PaCa-2 (KRAS-G12C) cell-line. Description: Cell based pERK assay, MIA-PaCa-2. Particulars: Homo sapiens; MIA-PaCa-2 (KRAS-G12C) cells, 2 hours compound incubation, HTRF Phospho-ERK1/2; read-out: MIAPaCa2 pERK EC50. As to the method:
as §2

Experiment [4] has as its system cellular pERK in NCI-H441 (KRAS-G12V) cell-line. As to the kind of experiment: Cell based pERK assay, NCI-H441. The note with it: Homo sapiens; NCI-H441 (KRAS-G12V) cells, 2 hours compound incubation, HTRF Phospho-ERK1/2. As to the method: as §2
The test system of experiment [5] is cellular pERK in ASPC-1 (KRAS G12D) cell-line. As to the kind of experiment: Cell based pERK assay, ASPC-1. Particulars: Homo sapiens, ASPC1, 2 h, ASPC-1 (KRAS G12D) cells, 2 hours compound incubation, HTRF Phospho-ERK1/2. How it is done: as §2

Sequence of GDP-loaded KRAS-G12D (P01116 1-188 isoform P01116-2 G12D): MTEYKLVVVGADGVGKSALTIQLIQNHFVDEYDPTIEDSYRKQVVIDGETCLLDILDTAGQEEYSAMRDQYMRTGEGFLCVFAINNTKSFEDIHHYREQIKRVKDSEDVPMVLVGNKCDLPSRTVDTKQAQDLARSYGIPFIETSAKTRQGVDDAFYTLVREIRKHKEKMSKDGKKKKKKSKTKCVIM
Sequence of GDP-loaded KRAS-G12C (P01116 1-188 isoform P01116-2 G12C): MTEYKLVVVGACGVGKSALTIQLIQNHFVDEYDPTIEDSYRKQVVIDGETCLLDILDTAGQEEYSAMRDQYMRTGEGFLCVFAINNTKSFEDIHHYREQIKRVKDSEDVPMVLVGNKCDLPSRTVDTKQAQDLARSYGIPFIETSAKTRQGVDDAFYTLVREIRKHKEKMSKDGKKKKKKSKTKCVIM

On to `C#Cc1c(F)ccc2cc(N)cc(-c3ncc4c(N5CC6(F)CCC(F)(C5)N6)nc(OC[C@@]56CCCN5[C@H](COc5cc(C(F)(F)F)ncn5)CC6)nc4c3F)c12` [Example 5-2], for which the IC50 in experiment [1] is 0.94 nM; at GDP-loaded KRAS-G12C, 1.38 nM; on GDP-loaded KRAS-G12V, 4.32 nM; on GDP-loaded KRAS-G12D, 10.3 nM. The EC50 is 6.04 nM in experiment [2], 3.24 nM in experiment [3], 27.1 nM in experiment [4] and 63.9 nM in experiment [5].

Regarding `Nc1nc2c(-c3c(Cl)cc4c(N5CC6(F)CCC(F)(C5)N6)nc(OC[C@@]56CCCN5C[C@H](F)C6)nc4c3F)ccc(F)c2s1` [Example 7-4], the 50% inhibitory concentration (IC50) in experiment [1] is 14.3 nM; at GDP-loaded KRAS-G12C, 42.5 nM; at GDP-loaded KRAS-G12V, above 82.3 nM; on GDP-loaded KRAS-G12D it was above 100 nM. Besides, the EC50 in experiment [2] was determined as 13.5 nM; in experiment [3] it was 42.8 nM; in experiment [4], 118 nM; in experiment [5], 459 nM.

Regarding `C#Cc1c(F)ccc2cc(O)cc(-c3ncc4c(N5C[C@]6(F)CC[C@](F)(C5)N6)nc(OC[C@@]56CCCN5C[C@H](F)C6)nc4c3F)c12` [Example 1-1, 4-(4-((1R,5S)-1,5-difluoro-3,8-diazabicyclo[3.2.1]octan-3-yl)-8-fluoro-2-(((2R,7aS)-2-fluorotetrahydro-1H-pyrrolizin-7a(5H)-yl)methoxy)pyrido[4,3-d]pyrimidin-7-yl)-5-ethynyl-6-fluoronaphthalen-2-ol], the IC50 amounted to 0.08 nM in experiment [1], 0.1 nM at GDP-loaded KRAS-G12C, 0.11 nM on GDP-loaded KRAS-G12V and 0.14 nM on GDP-loaded KRAS-G12D. Moreover, the EC50 in experiment [2] came out at 1.19 nM; in experiment [3], 0.16 nM; in experiment [4], 0.83 nM; in experiment [5], 4.11 nM.
